Data from ChEMBL document CHEMBL1201862, “PubChem BioAssay data set” (2004).
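Dose response: 5 concentrations. Exposure: 48 h. Format: 96-well plates. Endpoint: linear interpolation; highest concentration if not reached. At the GI50, growth is halved.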 Calls of active or inactive are those of the source. Rule as the data show it: active = GI50 up to about 1.1 µM and inactive = higher.

Experiments:
Assay in all cases: NCI tumour cell line growth inhibition, 48 h
DMS-114 = tested on: DMS-114
UACC-257 = tested on: UACC-257
HCC 2998 = tested on: HCC 2998
HCT-116 = tested on: HCT-116
ACHN = tested on: ACHN
786-0 = tested on: 786-0
M19-MEL = tested on: M19-MEL
TK-10 = tested on: TK-10
K562 = tested on: K562
M14 = tested on: M14
RXF 393 = tested on: RXF 393
U-251 = tested on: U-251
UACC-62 = tested on: UACC-62
HT-29 = tested on: HT-29
Malme-3M = tested on: Malme-3M
NCI-H522 = tested on: NCI-H522
A549 = tested on: A549
RPMI-8226 = tested on: RPMI-8226
SK-MEL-2 = tested on: SK-MEL-2
DMS-273 = tested on: DMS-273
SK-OV-3 = tested on: SK-OV-3
SNB-78 = tested on: SNB-78
KM-20L2 = tested on: KM-20L2
OVCAR-5 = tested on: OVCAR-5
DLD-1 = tested on: DLD-1
KM12 = tested on: KM12
XF498 = tested on: XF498
IGROV-1 = tested on: IGROV-1
SW-620 = tested on: SW-620
SF-268 = tested on: SF-268
SK-MEL-28 = tested on: SK-MEL-28
A498 = tested on: A498
NCI-H23 = tested on: NCI-H23
OVCAR-3 = tested on: OVCAR-3
NCI-H460 = tested on: NCI-H460
SNB-75 = tested on: SNB-75
HOP-62 = tested on: HOP-62
RXF 631 = tested on: RXF 631
SF-539 = tested on: SF-539
EKVX = tested on: EKVX
CCRF-CEM = tested on: CCRF-CEM
SF-295 = tested on: SF-295
HL-60 = tested on: HL-60
COLO 205 = tested on: COLO 205
LOX IMVI = tested on: LOX IMVI
HOP-92 = tested on: HOP-92
SK-MEL-5 = tested on: SK-MEL-5
OVCAR-8 = tested on: OVCAR-8
LXFL 529 = tested on: LXFL 529
MOLT-4 = tested on: MOLT-4

Measured: GI50

COC(=O)N/N=C(\Cc1ccccc1)CN(C)C
inactive: DMS-114 > 100 µM | UACC-257 > 100 µM | HCC 2998 > 100 µM | HCT-116 > 100 µM | ACHN > 100 µM | 786-0 > 100 µM | M19-MEL > 100 µM | TK-10 > 100 µM | K562 > 100 µM | M14 > 100 µM | RXF 393 > 100 µM | U-251 > 100 µM | UACC-62 > 100 µM | HT-29 > 100 µM | Malme-3M > 100 µM | NCI-H522 > 100 µM | A549 > 100 µM | RPMI-8226 > 100 µM | SK-MEL-2 > 100 µM | DMS-273 > 100 µM | SK-OV-3 > 100 µM | SNB-78 > 100 µM | KM-20L2 > 100 µM | OVCAR-5 > 100 µM | DLD-1 > 100 µM | KM12 > 100 µM | XF498 > 100 µM | IGROV-1 > 100 µM | SW-620 > 100 µM | SF-268 > 100 µM | SK-MEL-28 > 100 µM | A498 > 100 µM | NCI-H23 > 100 µM | OVCAR-3 > 100 µM | NCI-H460 > 100 µM | SNB-75 > 100 µM | HOP-62 > 100 µM | RXF 631 > 100 µM | SF-539 > 100 µM | EKVX > 100 µM | CCRF-CEM > 100 µM | SF-295 > 100 µM | HL-60 > 100 µM | COLO 205 > 100 µM | LOX IMVI > 100 µM | HOP-92 > 100 µM | SK-MEL-5 > 100 µM | OVCAR-8 > 100 µM | LXFL 529 > 100 µM | MOLT-4 > 100 µM
